Measured values: the NIST ThermoML archive (doi:10.1021/je700732u)
± gives the expanded uncertainty stated by the source.

How the values were obtained:
[1] = mn = molality of the nth substance listed, in mol/kg; conditions: 298.15 K, 101 kPa, Liquid
[2] = cn = amount concentration of the nth substance listed, in mol/dm3; conditions: 298.15 K, 101 kPa, Liquid

OC[C@H]1O[C@@](CO)(O[C@H]2O[C@H](CO)[C@@H](O)[C@H](O)[C@H]2O)[C@@H](O)[C@@H]1O [D-sucrose] + O
[1]
Conditions	mass density [kg/m3]	viscosity [mPa·s]
m1 = 0.2	1022.17 ± 0.33	1.064 ± 0.026
m1 = 0.4	1045.26 ± 0.41	1.277 ± 0.031
m1 = 0.6	1066.44 ± 0.48	1.533 ± 0.037
m1 = 0.8	1086.04 ± 0.55	1.843 ± 0.044
m1 = 1	1104.2 ± 0.61	2.241 ± 0.053
m1 = 1.2	1121.03 ± 0.68	2.638 ± 0.062

[Cl][Cu][Cl] [copper chloride] + O
[1]
Conditions	mass density [kg/m3]
m1 = 0.0498	1003.12 ± 0.27
m1 = 0.09962	1009.1 ± 0.29
m1 = 0.1992	1020.92 ± 0.33
m1 = 0.2988	1032.58 ± 0.37
m1 = 0.498	1055.47 ± 0.46

O=S(=O)([O-])[O-].[Cu+2] [copper sulfate] + O
Conditions	mass density [kg/m3]	viscosity [mPa·s]
[1], m1 = 0.05	1005.22 ± 0.18	–
[1], m1 = 0.1	1013.29 ± 0.2	–
[1], m1 = 0.2	1029.16 ± 0.26	–
[1], m1 = 0.3	1044.87 ± 0.31	–
[1], m1 = 0.4	1060.4 ± 0.37	–
[1], m1 = 0.5	1075.78 ± 0.43	–
[2], c1 = 0.04986	–	0.9222 ± 0.023
[2], c1 = 0.09974	–	0.9516 ± 0.024
[2], c1 = 0.1995	–	1.013 ± 0.025
[2], c1 = 0.2991	–	1.083 ± 0.027
[2], c1 = 0.3987	–	1.147 ± 0.028
[2], c1 = 0.4981	–	1.223 ± 0.03

[Cl-].[Cl-].[Mg+2] [magnesium chloride] + O
[1]
Conditions	mass density [kg/m3]
m1 = 0.09998	1004.88 ± 0.22
m1 = 0.2001	1012.54 ± 0.24
m1 = 0.4002	1027.51 ± 0.28
m1 = 0.5	1034.83 ± 0.3

O=S(=O)([O-])[O-].[Mg+2] [magnesium sulfate] + O
Conditions	mass density [kg/m3]	viscosity [mPa·s]
[1], m1 = 0.05	1003.14 ± 0.18	–
[1], m1 = 0.1	1009.13 ± 0.19	–
[1], m1 = 0.2	1020.83 ± 0.23	–
[1], m1 = 0.3	1032.43 ± 0.27	–
[1], m1 = 0.4	1043.79 ± 0.31	–
[1], m1 = 0.5	1055.11 ± 0.35	–
[2], c1 = 0.04787	–	0.9216 ± 0.023
[2], c1 = 0.09971	–	0.9527 ± 0.024
[2], c1 = 0.1994	–	1.016 ± 0.025
[2], c1 = 0.2989	–	1.083 ± 0.027
[2], c1 = 0.3983	–	1.155 ± 0.028
[2], c1 = 0.4976	–	1.234 ± 0.03

[Cl-].[Na+] [sodium chloride] + O
[1]
Conditions	mass density [kg/m3]
m1 = 0.04999	999.11 ± 0.27
m1 = 0.09999	1001.16 ± 0.27
m1 = 0.1999	1005.2 ± 0.28
m1 = 0.2999	1009.2 ± 0.29
m1 = 0.4002	1013.17 ± 0.3

O=S(=O)([O-])[O-].[Na+].[Na+] [sodium sulfate] + O
[1]
Conditions	mass density [kg/m3]
m1 = 0.09205	1008.69 ± 0.29
m1 = 0.2001	1021.99 ± 0.33
m1 = 0.3	1034.01 ± 0.37
m1 = 0.3999	1045.81 ± 0.42
m1 = 0.5001	1057.44 ± 0.46
